{"source": "patent US9821031B2", "about": "“Methods and compositions for treating hypoglycemic disorders” (priority 2007, dated 2017)", "key": {"[1]": {"test_system": "SUR-1−/− islets", "test": "Cytosolic free Ca2+ measurement (Fura-2)", "type": "cell-based, mouse", "details": "for Amino acid-stimulated rise in intracellular calcium: SUR-1−/− islets, amino acids 4 mM (FIG. 6)", "experimental": "Mouse islets were isolated and cultured on poly-[…] coated glass coverslips under the same conditions as described above. The perifusion procedure and cytosolic-free Ca2+ ([Ca2+]i) measurement were described previously (24). In brief, the coverslip with attached islets was incubated with 15 μM Fura-2 acetoxymethylester (Molecular Probes, Eugene, Oreg.) in Krebs-Ringer bicarbonate buffer with 5 mM glucose for 35 min at 37° C. Islets were then perifused with Krebs-Ringer bicarbonate buffer with 0.25% bovine serum albumin at 37° C. at a flow rate of 2mL/min, while various agents were applied. [Ca2+]i was measured with a dual wavelength fluorescence microscope as previously described."}, "[2]": {"test_system": "SUR-1−/− islets", "test": "cAMP content determination in static incubations of isolated islets", "type": "cell-based, mouse", "experimental": "Islets were isolated as above, hand-picked and cultured for three days. Cultured islets were preincubated in glucose free Krebs-Ringer bicarbonate buffer for 60 min, 100 nM exendin-(9-39) was added 30 min into the preincubation period. Then, islets were exposed to different treatments for an additional 30 min in the presence of 0.1 mM isobutyl-methylzanthine (IBMX). After incubation, islets were washed 2 times by cold glucose-free Hank's buffer. cAMP was measured in islet lysates by ELISA (GE/Amersham Biosciences, Piscataway, N.J.)."}, "[3]": {"test_system": "SUR-1−/− mice", "test": "Oral glucose tolerance test", "type": "in vivo, mouse", "experimental": "(§1) Alzet mini-osmotic pumps (model 2002; Alza, Palo Alto, Calif.) were implanted subcutaneously to deliver exendin-(9-39) (Bachem Bioscience, King of Prussia, Pa.) at a rate of 150 pmol/kg/min or vehicle (0.9% NaCl/1% BSA) for 2 weeks. For determination of fasting blood glucose levels mice were fasted for 12-16 hours. Oral glucose tolerance testing was carried after a 12-16 hour fast by administering 2 g/kg of dextrose by oral gavage (feeding needles; Popper and Sons, Inc., Hyde Park, N.Y.). For insulin tolerance testing mice received 0.5 units/kg of insulin intraperitoneally after a 4 hour fast. Blood glucose levels were measured using a hand-held glucose meter (FreeStyle; TheraSense, Alameda, Calif.). Insulin and glucagon were measured by ELISA (Mouse Endocrine Immunoassay Panel; Linco Research, Inc., St. Charles, Mo.). Twelve-18 week old male SUR-1^−/− and wildtype littermates underwent a baseline evaluation including fasting blood glucose measurements and oral glucose tolerance testing, followed by randomization to treatment with exendin-(9-39) (150 pmol/kg/min) or vehicle (0.9% NaCl, 1% BSA). Fasting blood glucose levels were determined after an overnight fast on days 3 and 7 of the infusion. In addition, oral glucose tolerance and insulin sensitivity were evaluated during treatment. […] After an oral load of glucose, SUR-1^−/− mice were glucose intolerant when compared to littermate wild-type controls (p<0.0001, repeated measures ANOVA) (FIG. 1C). The SUR-1^−/− mice have a significant impairment of insulin secretion in response to an oral glucose load (wildtype vs. SUR-1^−/−: p=0.02, repeated measures ANOVA) (FIG. 1D). Exendin-(9-39) was administered via an Azlet miniosmotic subcutaneous pump at a continuous infusion rate of 150 pmol/kg/min for 2 weeks. This dose was chosen based on results of a pilot study evaluating different doses previously shown to have an effect in normal humans and mice."}, "[4]": {"test_system": "wild-type littermates", "test": "Oral glucose tolerance test", "type": "in vivo, mouse", "details": "oral glucose 2 g/kg, during treatment (FIG. 4A)", "experimental": "as §1"}, "[5]": {"test_system": "SUR-1−/− islets", "test": "Insulin secretion in static incubations of isolated islets", "type": "cell-based, mouse"}, "[6]": {"test_system": "SUR-1−/− and wild-type mice", "test": "Insulin tolerance test (insulin sensitivity)", "type": "in vivo, mouse", "details": "insulin 0.5 units/kg i.p. after 4 hour fast, any of the treatment groups (FIG. 4B)", "experimental": "Alzet mini-osmotic pumps (model 2002; Alza, Palo Alto, Calif.) were implanted subcutaneously to deliver exendin-(9-39) (Bachem Bioscience, King of Prussia, Pa.) at a rate of 150 pmol/kg/min or vehicle (0.9% NaCl/1% BSA) for 2 weeks. For determination of fasting blood glucose levels mice were fasted for 12-16 hours. Oral glucose tolerance testing was carried after a 12-16 hour fast by administering 2 g/kg of dextrose by oral gavage (feeding needles; Popper and Sons, Inc., Hyde Park, N.Y.). For insulin tolerance testing mice received 0.5 units/kg of insulin intraperitoneally after a 4 hour fast. Blood glucose levels were measured using a hand-held glucose meter (FreeStyle; TheraSense, Alameda, Calif.). Insulin and glucagon were measured by ELISA (Mouse Endocrine Immunoassay Panel; Linco Research, Inc., St. Charles, Mo.). Twelve-18 week old male SUR-1^−/− and wildtype littermates underwent a baseline evaluation including fasting blood glucose measurements and oral glucose tolerance testing, followed by randomization to treatment with exendin-(9-39) (150 pmol/kg/min) or vehicle (0.9% NaCl, 1% BSA). Fasting blood glucose levels were determined after an overnight fast on days 3 and 7 of the infusion. In addition, oral glucose tolerance and insulin sensitivity were evaluated during treatment. […]"}, "[7]": {"test_system": "SUR-1−/− islets", "test": "Islet perifusion, fuel-induced insulin secretion", "type": "cell-based, mouse", "details": "perifused SUR-1−/− islets", "experimental": "Islets were isolated by collagenase digestion and cultured for 3 days in RPMI 1640 medium containing 10 mM glucose. The culture medium was supplemented with 10% fetal bovine serum, 2 mM glutamine, 100 units/mL penicillin, and 50 μg/mL streptomycin. Islets were incubated at 37° C. in a 5% CO2, 95% air-humidified incubator. Batches of 100 cultured mouse islets were loaded onto a nylon filter in a chamber and perifused with Krebs-Ringer bicarbonate buffer (115 mM NaCl, 24 mM NaHCO3, 5 mM KCl, 1 mM MgCl2, 2.5 mM CaCl2, 10 mM HEPES, pH 7.4) with 0.25% bovine serum albumin at a flow rate of 2 mL/min. Perifusate solutions were gassed with 95% O2, 5% CO2 and maintained at 37° C. Islets were stimulated with a ramp of amino acids. The physiologic mixture of 19 amino acids when used at a maximum concentration of 12 mM (about 3 times physiological concentration) had the following composition (in mM): glutamine 2, alanine 1.25, arginine 0.53, aspartate 0.11, citrulline 0.27, glutamate 0.35, glycine 0.85, histidine 0.22, isoleucine 0.27, leucine 0.46, lysine 1.06, methionine 0.14, ornithine 0.20, phenylalanine 0.23, proline 1, serine 1.62, threonine 0.77, tryptophan 0.21, valine 0.57. Samples were collected every minute for insulin assays. Insulin was measured by radioimmunoassay (Linco Research Inc., St. Charles, Mo.)."}, "[8]": {"test_system": "SUR-1−/− mice", "test": "Fasting hormonal profile (insulin, glucagon, insulin/glucose ratio)", "type": "in vivo, mouse", "experimental": "Alzet mini-osmotic pumps (model 2002; Alza, Palo Alto, Calif.) were implanted subcutaneously to deliver exendin-(9-39) (Bachem Bioscience, King of Prussia, Pa.) at a rate of 150 pmol/kg/min or vehicle (0.9% NaCl/1% BSA) for 2 weeks. For determination of fasting blood glucose levels mice were fasted for 12-16 hours. Oral glucose tolerance testing was carried after a 12-16 hour fast by administering 2 g/kg of dextrose by oral gavage (feeding needles; Popper and Sons, Inc., Hyde Park, N.Y.). For insulin tolerance testing mice received 0.5 units/kg of insulin intraperitoneally after a 4 hour fast. Blood glucose levels were measured using a hand-held glucose meter (FreeStyle; TheraSense, Alameda, Calif.). Insulin and glucagon were measured by ELISA (Mouse Endocrine Immunoassay Panel; Linco Research, Inc., St. Charles, Mo.)."}, "[9]": {"test_system": "SUR-1−/− mice", "test": "Fasting blood glucose during continuous subcutaneous exendin-(9-39) infusion", "type": "in vivo, mouse", "details": "for Fasting blood glucose levels: 150 pmol/kg/min s.c. pump, overnight fast", "text": "as §1, with “SUR-1^−/− mice were kindly provided by Dr. Mark A. Magnuson. The generation and genotyping of SUR-1^−/− mice were previously described (8). Mice are maintained in a C57B1/6 genetic background. Twelve to eighteen week SUR-1^−/− and wild-type littermate control mice were used in all experiments. Mice were maintained on a 12:12-h light-dark cycle and were fed a standard rodent chow diet. All procedures were approved and carried out according to the University of Pennsylvania Institutional Animal Care and Use Committee Guidelines. Alzet” for “Alzet”"}, "[10]": {"test_system": "wild-type littermates", "test": "Fasting blood glucose during continuous subcutaneous exendin-(9-39) infusion", "type": "in vivo, mouse", "details": "wild-type mice, 150 pmol/kg/min", "text": "as §1, with “SUR-1^−/− mice were kindly provided by Dr. Mark A. Magnuson. The generation and genotyping of SUR-1^−/− mice were previously described (8). Mice are maintained in a C57B1/6 genetic background. Twelve to eighteen week SUR-1^−/− and wild-type littermate control mice were used in all experiments. Mice were maintained on a 12:12-h light-dark cycle and were fed a standard rodent chow diet. All procedures were approved and carried out according to the University of Pennsylvania Institutional Animal Care and Use Committee Guidelines. Alzet” for “Alzet”"}, "[11]": {"details": "during treatment, SUR-1−/− and wild-type (FIG. 3A)"}}, "note": "“Also recorded” adds a separate entry of the source. Marks after values point to notes of the source that are not given here."}
{"substance": "Exendin (9-39) [Exendin-(9-39)]", "values": [{"measurement": "Basal intracellular calcium", "setting": "[1]; SUR-1−/− islets (FIG. 6)", "result": "did not affect"}, {"measurement": "Amino acid-stimulated rise in intracellular calcium", "setting": "[1]", "result": "no effect"}, {"measurement": "Amino acid-stimulated rise in intracellular calcium", "setting": "[1]; listed as exendin-(9-39)", "result": "did not impact"}, {"measurement": "cAMP Content", "setting": "[2]; 100 nM exendin-(9-39) + 4 mM AAM (amino acid-stimulated)", "result": "52.5 ± 9.4^c pmol/100 islets"}, {"measurement": "cAMP Content", "setting": "[2]; 100 nM exendin-(9-39) + 4 mM AAM (amino acid-stimulated), listed as exendin-(9-39)", "result": "20.9±4.4", "unit": "pmol/100 islets"}, {"measurement": "cAMP Content", "setting": "[2]; basal, 100 nM exendin-(9-39), no exogenous GLP-1, glucose free KRBB, baseline 40.1 ± 4.2", "result": "20.5 ± 2.3^a pmol/100 islets"}, {"measurement": "cAMP Content", "setting": "[2]; basal, 100 nM exendin-(9-39), no exogenous GLP-1, glucose free KRBB, baseline 40.1 ± 4.2, listed as exendin-(9-39)", "result": "20.5±2.3", "unit": "pmol/100 islets"}, {"measurement": "Glucose tolerance", "setting": "[3]; oral glucose 2 g/kg, during treatment (FIG. 4A)", "result": "did not significantly impair; also recorded: did not influence"}, {"measurement": "Return to baseline blood glucose levels", "setting": "[3]; oral glucose tolerance test, 120 minute time point", "result": "minor delay"}, {"measurement": "Glucose tolerance", "setting": "[4]", "result": "no effect"}, {"measurement": "Insulin Secretion", "setting": "[5]; 100 nM exendin-(9-39) + 4 mM AAM (amino acid-stimulated), AAM alone 389 ± 17", "result": "219 ± 14", "unit": "ng/100 islets/30 min"}, {"measurement": "Insulin Secretion", "setting": "[5]; 100 nM exendin-(9-39) + 4 mM AAM (amino acid-stimulated), AAM alone 389 ± 17, listed as exendin-(9-39)", "result": "219±14", "unit": "ng/100 islets/30 min"}, {"measurement": "Insulin Secretion", "setting": "[5]; basal, 100 nM exendin-(9-39), baseline 221 ± 22", "result": "126 ± 12^a ng/100 islets/30 min"}, {"measurement": "Insulin Secretion", "setting": "[5]; basal, 100 nM exendin-(9-39), baseline 221 ± 22, listed as exendin-(9-39)", "result": "126±12", "unit": "ng/100 islets/30 min"}, {"measurement": "Peripheral insulin sensitivity", "setting": "[6]", "result": "did not impact; also recorded: did not influence"}, {"measurement": "Insulin response to KCl, presence vs. absence of exendin-(9-39)", "setting": "[7]; 100 nM exendin-(9-39)", "result": "similar"}, {"measurement": "Insulin release in response to ramp of amino acid mixture", "setting": "[7]; amino acids 0-12 mM, 100 nM exendin-(9-39) (FIG. 5)", "result": "blocked"}, {"measurement": "Insulin/glucose ratio", "setting": "[8]; SUR-1−/− mice, WT vs. SUR-1−/− Ex-(9-39) p=0.32 (FIG. 3B)", "result": "normalized"}, {"measurement": "Fasting glucagon levels among treatment groups", "setting": "[8]; [11]", "result": "not different"}, {"measurement": "Fasting insulin levels among treatment groups", "setting": "[8]; [11]", "result": "not different"}, {"measurement": "Fasting blood glucose levels", "setting": "[9]; day 3, mean±SEM", "result": "82.2 ± 6.3", "unit": "mg/dL"}, {"measurement": "Fasting blood glucose levels", "setting": "[9]; day 7, mean±SEM", "result": "82 ± 4.7", "unit": "mg/dL"}, {"measurement": "Effect on fasting blood glucose levels (in words)", "setting": "[9]; 12-16 hour fast, day 7 (FIG. 2)", "result": "normalized"}, {"measurement": "Fasting blood glucose levels vs. vehicle-treated wild type controls", "setting": "[10]", "result": "not different"}]}
